molecular target: T1, Non-receptor tyrosine-protein kinase TYK2 [556-888] (Homo sapiens, UniProt P29597); test: TYK2 JH2 Domain Binding Assay
T1 construct: 556-888
Description: Binding constants for compounds disclosed herein against the JH2 domain are determined by the following protocol for a KINOMEscan assay (DiscoveRx). A fusion protein of a partial length construct of human TYK2 (JH2domain-pseudokinase) (amino acids G556 to D888 based on reference sequence NP 003322.3) and the DNA binding domain of NFkB is expressed in transiently transfected HEK293 cells. From these HEK 293 cells, extracts are prepared in M-PER extraction buffer (Pierce) in the presence of Protease Inhibitor Cocktail Complete (Roche) and Phosphatase Inhibitor Cocktail Set II (Merck) per manufacturers' instructions. The TYK2 (JH2domain-pseudokinase) fusion protein is labeled with a chimeric double-stranded DNA tag containing the NFkB binding site (5′-GGGAATTCCC-3′) fused to an amplicon for qPCR readout, which is added directly to the expression extract (the final concentration of DNA-tag in the binding reaction is 0.1 nM).

T1 sequence (P29597 556-888): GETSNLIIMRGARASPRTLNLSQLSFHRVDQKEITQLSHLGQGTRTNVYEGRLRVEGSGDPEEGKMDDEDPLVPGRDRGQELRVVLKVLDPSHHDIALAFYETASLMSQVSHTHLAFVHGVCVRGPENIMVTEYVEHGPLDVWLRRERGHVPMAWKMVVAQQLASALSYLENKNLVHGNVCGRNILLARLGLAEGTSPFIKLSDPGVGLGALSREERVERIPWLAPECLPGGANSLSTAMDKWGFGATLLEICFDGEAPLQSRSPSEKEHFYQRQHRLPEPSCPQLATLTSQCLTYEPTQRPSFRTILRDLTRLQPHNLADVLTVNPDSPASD

Going from CNC(=O)c1cnc(N2CCCC2)nc1Nc1ccc(C2CC2)nc1 [US20250257051, Compound 10] to CNC(=O)c1cnc(N2CCNCC2C)nc1Nc1ccc(C2CC2)nc1 (centres undefined) [US20250257051, Compound 14], the Kd rises from 0.37 µM to 19 µM (51-fold). The first binds more tightly here.

COc1ccccc1Nc1nc(N2CCCNCC2)ncc1C(N)=O [US20250257051, Compound 40] and CC(C)(C)OC(=O)N1CCCN(c2ncc(C(N)=O)c(Nc3ccccc3S(C)(=O)=O)n2)CC1 [US20250257051, Compound 65] are within 1.5-fold of each other in Kd: 3.3 µM for the first, 2.9 µM for the second.
